Measurements from patent publication US20120101100A1 (priority 2008, published 2012).
pIC50: −log10 of the molar value.

Molecular target: S. aureus GyrB ATPase (Staphylococcus aureus, UniProt P0A0K8)
Assay: S. aureus (SAU) GyrB ATPase inhibition, malachite green phosphate detection (E. coli GyrA + S. aureus GyrB)
Format: biochemical
Settings: for inhibition at 1 µM: read-out: S. aureus (SAU) GyrB ATPase % Inhibition
Experimental: Compounds were tested for inhibition of GyrB ATPase activity using an ammonium molybdate/malachite green-based phosphate detection assay (Lanzetta, P. A., L. J. Alvarez, P. S. Reinach, and O. A. Candia, 1979, 100: 95-97). Assays were performed in multiwell plates in 100 μl reactions containing: 50 mM Hepes buffer pH 7.5, 75 mM ammonium acetate, 8.0 mM magnesium chloride, 1.0 mM ethylenediaminetetraacetic acid, 5% glycerol, 2 mM 1,4-Dithio-DL-threitol, 400 nM bovine serum albumin, 5 μg/ml sheared salmon sperm DNA, 1.25 nM E. coli GyrA, 1.25 nM S. aureus GyrB, 500 μM ATP, and compound in dimethylsulfoxide. Reactions were quenched with 150 μl of ammonium molybdate/malachite green detection reagent containing 1.2 mM malachite green hydrochloride, 8.5 mM ammonium molybdate tetrahydrate, and 1 M hydrochloric acid. Plates were read in an absorbance plate reader at 650 nm and percent inhibition values were calculated using dimethylsulfoxide (2%)-containing reactions as 0% inhibition and novobiocin-containing (2 μM) reactions as 100% inhibition controls. Compound potency was based on IC50 measurements determined from reactions performed in the presence of 10 different compound concentrations.

[1] = compound concentration of 1.0 μM unless otherwise noted, average value where assay was carried out more than once

Chain of S. aureus GyrB ATPase (P0A0K8 whole entry): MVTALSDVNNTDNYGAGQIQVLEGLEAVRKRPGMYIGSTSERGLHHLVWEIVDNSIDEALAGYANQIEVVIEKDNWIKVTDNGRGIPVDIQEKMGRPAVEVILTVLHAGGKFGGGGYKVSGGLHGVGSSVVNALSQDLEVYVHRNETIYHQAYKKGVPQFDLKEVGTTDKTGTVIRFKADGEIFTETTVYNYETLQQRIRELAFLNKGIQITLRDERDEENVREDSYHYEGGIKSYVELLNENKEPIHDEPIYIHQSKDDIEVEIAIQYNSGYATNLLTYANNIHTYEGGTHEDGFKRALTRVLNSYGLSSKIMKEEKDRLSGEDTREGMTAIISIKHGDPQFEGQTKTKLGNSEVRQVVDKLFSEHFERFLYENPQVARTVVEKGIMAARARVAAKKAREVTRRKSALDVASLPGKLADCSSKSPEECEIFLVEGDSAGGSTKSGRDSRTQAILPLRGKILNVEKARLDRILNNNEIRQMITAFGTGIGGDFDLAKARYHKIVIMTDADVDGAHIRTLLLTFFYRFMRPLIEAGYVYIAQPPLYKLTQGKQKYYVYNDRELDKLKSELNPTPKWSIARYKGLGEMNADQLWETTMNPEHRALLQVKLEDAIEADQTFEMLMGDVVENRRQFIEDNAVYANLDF
Chain of S. aureus GyrB ATPase (P0AES4 whole entry, further chain): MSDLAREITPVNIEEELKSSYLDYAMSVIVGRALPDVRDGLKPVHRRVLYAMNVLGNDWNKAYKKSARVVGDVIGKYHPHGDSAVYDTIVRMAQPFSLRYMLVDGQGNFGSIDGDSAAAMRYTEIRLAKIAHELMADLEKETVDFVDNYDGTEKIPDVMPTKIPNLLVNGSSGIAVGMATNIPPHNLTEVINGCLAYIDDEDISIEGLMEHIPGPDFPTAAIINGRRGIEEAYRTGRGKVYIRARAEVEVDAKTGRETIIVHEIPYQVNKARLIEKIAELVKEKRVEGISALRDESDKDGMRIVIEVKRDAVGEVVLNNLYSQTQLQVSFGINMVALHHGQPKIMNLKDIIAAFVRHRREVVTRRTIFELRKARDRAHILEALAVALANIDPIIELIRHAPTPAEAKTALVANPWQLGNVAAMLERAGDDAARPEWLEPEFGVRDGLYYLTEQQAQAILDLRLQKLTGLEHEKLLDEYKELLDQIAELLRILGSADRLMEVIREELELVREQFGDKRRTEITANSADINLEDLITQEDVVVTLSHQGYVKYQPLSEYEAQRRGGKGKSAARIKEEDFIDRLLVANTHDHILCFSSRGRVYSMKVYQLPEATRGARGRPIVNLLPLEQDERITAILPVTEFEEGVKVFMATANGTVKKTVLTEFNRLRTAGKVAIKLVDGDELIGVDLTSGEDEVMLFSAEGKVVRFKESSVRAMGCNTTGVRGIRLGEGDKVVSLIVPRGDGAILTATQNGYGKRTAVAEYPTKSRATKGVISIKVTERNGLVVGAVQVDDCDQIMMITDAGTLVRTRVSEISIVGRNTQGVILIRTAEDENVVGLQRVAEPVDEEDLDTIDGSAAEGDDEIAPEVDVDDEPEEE

For “1-Ethyl-3-(5′-(5-oxo-2,5-dihydro-1H-pyrazol-3-yl)-3,3′-bipyridin-6-yl)urea [Example 17]”, the pIC50 (10 compound concentrations, 500 μM ATP) was 8.00 and the “S. aureus (SAU) GyrB ATPase % Inhibition” value [1] was 102.2%.

`CCNC(=O)Nc1cc(-c2nnc(-c3ccccc3)o2)c(-c2ncc(-c3n[nH]c(=O)o3)s2)cn1` [Example 194] showed an inhibition at 1 µM [1] of 101%.

With `CCCNC(=O)Nc1cc(-c2nc(C(F)(F)F)cs2)c(-c2cncc(-c3nnc(C)o3)c2)cn1` [Example 173, 1-(5′-(5-methyl-1,3,4-oxadiazol-2-yl)-4-(4-(trifluoromethyl)thiazol-2-yl)-3,3′-bipyridin-6-yl)-3-propylurea] the inhibition at 1 µM [1] was 95%.

Work on `CCNC(=O)Nc1cc(-c2nnc(-c3ccncc3)o2)c(-c2cncc(-c3n[nH]c(=O)o3)c2)cn1` [Example 38, 1-ethyl-3-(5′-(5-oxo-4,5-dihydro-1,3,4-oxadiazol-2-yl)-4-(5-(pyridin-4-yl)-1,3,4-oxadiazol-2-yl)-3,3′-bipyridin-6-yl)urea] yielded an inhibition at 1 µM [1] of 108%.

`CCNC(=O)Nc1cc(-c2nc(C(F)(F)F)cs2)c(-c2cc(OCC)nc(-c3n[nH]c(=O)o3)c2)cn1` [Example 75, 1-(2′-ethoxy-6′-(5-oxo-4,5-dihydro-1,3,4-oxadiazol-2-yl)-4-(4-(trifluoromethyl)thiazol-2-yl)-3,4′-bipyridin-6-yl)-3-ethylurea] was tested, and the inhibition at 1 µM [1] was 99%.

`CCNC(=O)Nc1cc(-c2nc(-c3cnn(C)c3)cs2)c(-c2cncc(-c3n[nH]c(=O)o3)c2)cn1` [Example 27, 1-ethyl-3-(4-(4-(1-methyl-1H-pyrazol-4-yl)thiazol-2-yl)-5′-(5-oxo-4,5-dihydro-1,3,4-oxadiazol-2-yl)-3,3′-bipyridin-6-yl)urea] gave an inhibition at 1 µM [1] of 109%.

For `CCNC(=O)Nc1cc(-c2nc(C(F)(F)F)cs2)c(-c2cc[n+]([O-])c(-c3nnc(C)o3)c2)cn1` [Example 259, 6-(3-ethylureido)-2′-(5-methyl-1,3,4-oxadiazol-2-yl)-4-(4-(trifluoromethyl)thiazol-2-yl)-3,4′-bipyridine 1′-oxide], the inhibition at 1 µM [1] was 95%.

`CCNC(=O)Nc1cc(-c2nnc(-c3ccccc3)o2)c(-c2ccnc(-c3n[nH]c(=O)o3)c2)cn1` [Example 192] gave an inhibition at 1 µM [1] of 101%.

`CCNC(=O)Nc1cc(-c2nc(C(F)(F)F)cs2)c(-c2cncc(-c3nnc([C@@H](N)C(C)C)o3)c2)cn1` [Example 183] was tested, and the inhibition at 1 µM [1] was 96%.

Work on `CCNC(=O)Nc1cc(-c2nc(C(F)(F)F)cs2)c(-c2cc(-c3n[nH]c(=O)o3)cnc2OC2CCN(C)CC2)cn1` [Example 215] yielded an inhibition at 1 µM [1] of 96%.

`CCNC(=O)Nc1cc(-c2nc(C(F)(F)F)cs2)c(-c2cncc(-c3nn(C(=O)N4CCCCC4)c(=O)o3)c2)cn1` [Example 177] gave an inhibition at 1 µM [1] of 86%.

`CCNC(=O)Nc1cc(-c2nc(C(F)(F)F)cs2)c(-c2cncc(-c3c[nH]nc3C)c2)cn1` [Example 132] was tested, and the inhibition at 1 µM [1] was 92%.

Molecule `O=C(NCC(F)(F)F)Nc1cc(-c2nc(C(F)(F)F)cs2)c(-c2cncc(-c3n[nH]c(=O)o3)c2)cn1` [Example 49, 1-(5′-(5-oxo-4,5-dihydro-1,3,4-oxadiazol-2-yl)-4-(4-(trifluoromethyl)thiazol-2-yl)-3,3′-bipyridin-6-yl)-3-(2,2,2-trifluoroethyl)urea] has an inhibition at 1 µM [1] of 99%.

`CCNC(=O)Nc1cc(-c2nc(C(F)(F)F)cs2)c(-c2cc(-c3n[nH]c(=O)o3)cnc2OCCN2CCOCC2)cn1` [Example 102, 1-Ethyl-3-(2′-(2-morpholinoethoxy)-5′-(5-oxo-4,5-dihydro-1,3,4-oxadiazol-2-yl)-4-(4-(trifluoromethyl)thiazol-2-yl)-3,3′-bipyridin-6-yl)urea] showed an inhibition at 1 µM [1] of 92%.

For `CCNC(=O)Nc1cc(-c2nc(C(F)(F)F)cs2)c(-c2cncc(-c3nnc([C@H](N)C(C)C)o3)c2)cn1` [Example 280, (R)-1-(5′-(5-(1-amino-2-methylpropyl)-1,3,4-oxadiazol-2-yl)-4-(4-(trifluoromethyl)thiazol-2-yl)-3,3′-bipyridin-6-yl)-3-ethylurea], the inhibition at 1 µM [1] was 95%.

Molecule `CCNC(=O)Nc1cc(-c2nc(C(F)(F)F)cs2)c(-c2cc(-c3n[nH]c(=O)o3)cnc2OCCN(C(C)C)C(C)C)cn1` [Example 120] has an inhibition at 1 µM [1] of 118%.

For `CCNC(=O)Nc1cc(-c2nc(-c3cccc(OC)n3)cs2)c(-c2cncc(S(N)(=O)=O)c2)cn1` [Example 247, 6′-(3-ethylureido)-4′-(4-(6-methoxypyridin-2-yl)thiazol-2-yl)-3,3′-bipyridine-5-sulfonamide], the inhibition at 1 µM [1] was 100%.

`CCNC(=O)Nc1cc(-c2nc(C(F)(F)F)cs2)c(-c2cc(-c3nnc(C)o3)cnc2OCC2CC2)cn1` [Example 234, 1-(2′-(cyclopropylmethoxy)-5′-(5-methyl-1,3,4-oxadiazol-2-yl)-4-(4-(trifluoromethyl)thiazol-2-yl)-3,3′-bipyridin-6-yl)-3-ethylurea] showed an inhibition at 1 µM [1] of 105%.

Work on `CCNC(=O)Nc1cc(-c2nc(C(F)(F)F)cs2)c(-c2cncc(-c3nc(C)n[nH]3)c2)cn1` [Example 7, 1-Ethyl-3-(5′-(3-methyl-1H-1,2,4-triazol-5-yl)-4-(4-(trifluoromethyl)thiazol-2-yl)-3,3′-bipyridin-6-yl)urea] yielded an inhibition at 1 µM [1] of 90%.

`CCNC(=O)Nc1cc(-c2nc(C(F)(F)F)cs2)c(-c2cncc(-c3nnc([C@H](C)O)o3)c2)cn1` [Example 237, (S)-1-ethyl-3-(5′-(5-(1-hydroxyethyl)-1,3,4-oxadiazol-2-yl)-4-(4-(trifluoromethyl)thiazol-2-yl)-3,3′-bipyridin-6-yl)urea] gave an inhibition at 1 µM [1] of 110%.

In the case of `CCNC(=O)Nc1cc(-c2nc(C(F)(F)F)cs2)c(-c2cc(-c3n[nH]c(=O)o3)cnc2CC)cn1` [Example 71, 1-ethyl-3-(2′-ethyl-5′-(5-hydroxy-1,3,4-oxadiazol-2-yl)-4-(4-(trifluoromethyl)thiazol-2-yl)-3,3′-bipyridin-6-yl)urea], the inhibition at 1 µM [1] was 93%.

Work on `CCNC(=O)Nc1cc(-c2nc(C(F)(F)F)c(CNC3CCCC3)s2)c(-c2cncc(-c3nnc(C)o3)c2)cn1` [Example 57, 1-(4-(5-((cyclopentylamino)methyl)-4-(trifluoromethyl)thiazol-2-yl)-5′-(5-methyl-1,3,4-oxadiazol-2-yl)-3,3′-bipyridin-6-yl)-3-ethylurea] yielded an inhibition at 1 µM [1] of 96%.

Work on `O=C(Nc1cc(-c2nc(C(F)(F)F)cs2)c(-c2cncc(-c3n[nH]c(=O)o3)c2)cn1)NC1CC1` [Example 45, 1-cyclopropyl-3-(5′-(5-oxo-4,5-dihydro-1,3,4-oxadiazol-2-yl)-4-(4-(trifluoromethyl)thiazol-2-yl)-3,3′-bipyridin-6-yl)urea] yielded an inhibition at 1 µM [1] of 103%.

Molecule `CCNC(=O)Nc1cc(-c2nc(-c3ccccc3)cs2)c(-c2cncc(-c3nnc(C)o3)c2)cn1` [Example 94, 1-ethyl-3-(5′-(5-methyl-1,3,4-oxadiazol-2-yl)-4-(4-phenylthiazol-2-yl)-3,3′-bipyridin-6-yl)urea] has an inhibition at 1 µM [1] of 98%.

`CCNC(=O)Nc1cc(-c2nc(-c3cccc(OC)n3)cs2)c(-c2cncc(-c3n[nH]c(=O)o3)n2)cn1` [Example 262, 1-ethyl-3-(4-(4-(6-methoxypyridin-2-yl)thiazol-2-yl)-5-(6-(5-oxo-4,5-dihydro-1,3,4-oxadiazol-2-yl)pyrazin-2-yl)pyridin-2-yl)urea] gave an inhibition at 1 µM [1] of 97%.

Work on `CCNC(=O)Nc1cc(-c2nc(C(F)(F)F)cs2)c(-c2nc(-c3ncnn3C)c(-c3nnc(C)o3)s2)cn1` [Example 137, 1-Ethyl-3-(5-(5-(5-methyl-1,3,4-oxadiazol-2-yl)-4-(1-methyl-1H-1,2,4-triazol-5-yl)thiazol-2-yl)-4-(4-(trifluoromethyl)thiazol-2-yl)pyridin-2-yl)urea] yielded an inhibition at 1 µM [1] of 101%.

`CCNC(=O)Nc1cc(-c2nc(C(F)(F)F)cs2)c(-c2cncc(-c3nn(C(C)=O)c(=O)o3)c2)cn1` [Example 161] showed an inhibition at 1 µM [1] of 97%.

In the case of `CCNC(=O)Nc1cc(-c2nc(C(F)(F)F)c(C(=O)NC3CCCCC3)s2)c(-c2cncc(-c3n[nH]c(=O)o3)c2)cn1` [Example 69, N-cyclohexyl-2-(6-(3-ethylureido)-5′-(5-oxo-4,5-dihydro-1,3,4-oxadiazol-2-yl)-3,3′-bipyridin-4-yl)-4-(trifluoromethyl)thiazole-5-carboxamide], the inhibition at 1 µM [1] was 91%.

In the case of `CCNC(=O)Nc1cc(-c2nc(-c3cnn(C)c3)cs2)c(-c2cncc(S(N)(=O)=O)c2)cn1` [Example 185], the inhibition at 1 µM [1] was 99%.

With `CCNC(=O)Nc1cc(-c2nc(C3CCN(C(=O)n4ccnc4)CC3)cs2)c(-c2cncc(-c3n[nH]c(=O)o3)c2)cn1` [Example 213] the inhibition at 1 µM [1] was 95%.

For `CCNC(=O)Nc1cc(-c2nc(C(F)(F)F)cs2)c(-c2cncc(-c3nnc(C(=O)N(C)C)o3)c2)cn1` [Example 274, 5-(6′-(3-ethylureido)-4′-(4-(trifluoromethyl)thiazol-2-yl)-3,3′-bipyridin-5-yl)-N,N-dimethyl-1,3,4-oxadiazole-2-carboxamide], the inhibition at 1 µM [1] was 99%.

`CCNC(=O)Nc1cc(-c2nc(C(F)(F)F)cs2)c(-c2cncc(-c3nnc(N4CCC(O)CC4)o3)c2)cn1` [Example 180] showed an inhibition at 1 µM [1] of 96%.

For `CCNC(=O)Nc1cc(-c2nc(-c3ccccc3)cs2)c(-c2nc(-c3ncccn3)c(-c3nnc(C)o3)s2)cn1` [Example 98, 1-ethyl-3-(5-(5-(5-methyl-1,3,4-oxadiazol-2-yl)-4-(pyrimidin-2-yl)thiazol-2-yl)-4-(4-phenylthiazol-2-yl)pyridin-2-yl)urea], the inhibition at 1 µM [1] was 100%.
